In patent US20250352494A1, “TRANSDERMAL DELIVERY DEVICE FOR PEPTIDE DELIVERY AND METHODS OF USE” (PassPort Technologies, Inc., priority 2022, published 2025):
Ends that are not written are not given here.

Assays:
in vivo [1] = test: in vivo
Excerpt: (§1) Animal Studies in Mice. […] The hair was removed prior to the experiments. […] Exp. 21 (2008).
IgG was purified with antigen-coupled resin and conjugated to biotin. Horseradish peroxidase-conjugated streptavidine was from Amersham/GE Healthcare (Cat #RPN1051, Little Chalfont, UK), and the tetramethylbenzidine (TMB) microwell peroxidase substrate system was from SeraCare Life Sciences Inc. (Cat #5120-0075, Milford, MA, USA). The mice were anesthetized by using 1% isoflurane, and CSF was collected from the cisterna magna in mice as described above, and then mice were sacrificed.
Dis. (2014) 39, 861-870, p3-Alcβ37- and p3-Alcβ40-specific sELISA systems, described in Hata et al “Decrease in p3-Alcβ37 and p3-Alcβ40, products of Alcadeinβ generated by γ-secretase cleavages, in aged monkeys and patients with Alzheimer's disease” Alzheimers Dement TRCI (2019) 5, 740-750.
The next day, the non-binding antibody was removed with wash buffer (0.05% Tween-20 in PBS). The plasma and CSF were diluted 200-fold and 20-fold with EIA buffer (1% BSA, 0.05% Tween-20), respectively. The sample solution was added to 96 well plates and stayed overnight at 4° C. The next day, after washing with wash buffer, purified biotinylated IgG dissolved in PBS was added to […] in each well, and the mixture was kept overnight at 4° C. The next day, the unreacted antibody was washed with wash buffer, streptavidin-HRP (1/5000 in PBS) was added, and the reaction was carried out at 4° C. for 6 to 8 hours. After washing with Wash buffer, TMB color-developing substrate was added, and the mixture was reacted at room temperature for 30 minutes under light-protection. The color development was stopped by adding 1 N H2SO4, and the samples were measured by a plate reader at 450 nm.

in vivo [2] = conditions: for bioavailability: 2 mg; for PK Profile: Table 40
Description: (§2) Animal Studies in Rats. […] In vivo PK studies were performed in CD rats (Charles River Laboratories) according to IACUC-approved Animal Protocols. Each dosing formulation was prepared prior to the experiments. The patch was manufactured according to dry patch manufacturing procedure. The animals for transdermal applications were shaved 1 day before the dosing date. The transdermal microporation was applied using the Applicator and Porator. Then, the patch was placed to cover the porated area for 1 day or a designated duration. After the last blood sampling, the patch was collected, and the application site was wiped by paper or cotton to recover the remaining drug on the skin. The blood samples were collected from the tail vein and transferred into K2-EDTA tube at the designated sampling time. The samples were centrifuged at 4° C., and then plasma samples were obtained. All samples were stored at −80° C. freezer until bioassay.
The plasma samples were stayed at room temperature for 30 minutes. The plasma (50 μL) was transferred into a 2 mL Eppendorf tube (Protein LoBind), then add 50 μL of Acetonitrile/DMSO (4:1, v/v), and vortex the tube for a couple of seconds. The samples were centrifuged for 15 minutes at 3700 rpm, 4° C. The 150 μL of mobile phase A (0.1% formic acid in water) were put into a new tube, then 50 μL of the supernatant were transferred into the tube and the samples were vortexed for 5 minutes. The supernatant was pulled out and the solution was filtered through a 0.20 μm PTFE membrane into an autosampler vial (LCMSMS).

[3] = rats; reducing sugar formulation (Table 22); 24 hours after application; without microporation
Description: as §2, with “The transdermal microporation was applied using the Applicator and Porator.” left out

[4] = p3-Alcβ9-19 in mouse plasma (sELISA) after transdermal microporation patch or subcutaneous injection; type: in vivo, wild-type mice; conditions: mice plasma
Excerpt: as §1
sELISA method for p3-Alcβ9-19 Analysis.

[5] = mouse, cerebrospinal fluid, sc, 30 ug
[6] = mouse, sc, 30 ug, subcutaneous injection 30 μg

With HRGHQPPPEMA [p3-Alcβ9-19] the “BA (relative bioavailability) vs SC (30 μg/body)” value (in vivo [1]; mice CSF, subcutaneous injection 30 μg (reference)) was 100%, the AUC(0-t) (in vivo [1]; [5]) was 5.01 ng·h/mL and the Cmax (in vivo [1]; [5]) was 14.9 ± 10.7 ng/mL. The Tmax (in vivo [1]; [5]) was 15 min, the bioavailability (in vivo [2]; CD, rat, plasma, iv) was 100% and the bioavailability (in vivo [2]; CD, rat, plasma, oral) was 0%. For the same sequence, the bioavailability (in vivo [2]; CD, rat, plasma, other: nasal) was 0%, the bioavailability (in vivo [2]; CD, rat, plasma, other: passive transdermal) was 0% and the Tmax (in vivo [2]; CD, rat, plasma, other: transdermal microporation) was roughly 60 min. The bioavailability (in vivo [2]; CD, rat, plasma, subcutaneous) was 120 to 275%, the “aBA (absolute bioavailability) vs IV (2 mg/body)” value (in vivo [2]; Table 33, optimized formulations for immediate delivery, rats, 400 density, 4 mJ/filament) was “about 2000%” and the “PK Profile” value (in vivo [2]; Intravenous injection) was “Bolus absorption”. For the same sequence, the “PK Profile” value (in vivo [2]; Nasal) was “No absorption”, the “PK Profile” value (in vivo [2]; Oral) was “No absorption” and the “PK Profile” value (in vivo [2]; Passive Transdermal) was “No absorption”. The “PK Profile” value (in vivo [2]; Subcutaneous injection) was “Bolus absorption”, the Absorption (in vivo [2]; rats, 5 mg/head, oral, nasal, or passive transdermal routes) was “No absorption” and the “Time by which blood concentrations disappeared” value (in vivo [2]; rats, SC injection) was no more than 1 h. The “Relationship between p3-Alcβ9-19 dose and AUC, FIG. 16” value (in vivo [2]; rats, immediate delivery, up to 50 mg of p3-Alcβ9-19 (tested dose)) was “liner dose-dependency”, the PK profiles (in vivo [2]; rats, intravenous (IV) and subcutaneous (SC) injections) was “rapid absorption and quick elimination” and the “AUC and Cmax versus p3-Alcβ9-19 dose, FIG. 19A/19B” value (in vivo [2]; rats, optimized patch) was “increased p3-Alcβ9-19 dose-dependently”. For the same sequence, the “Relationship between p3-Alcβ9-19 dose and AUC, FIG. 17” value (in vivo [2]; rats, sustained delivery, up to 25 mg of p3-Alcβ9-19 (tested dose)) was “liner dose-dependency”, the “p3-Alcβ9-19 recovered (drug residual)” value [3] was “about 100%” and the “BA (relative bioavailability) vs SC (30 μg/body)” value ([4]; subcutaneous injection 30 μg (reference)) was 100%. The Cmax [4, 6] was 25.5 ± 12.5 ng/mL, the Tmax [4, 6] was 18.8 min and the AUC(0-t) ([4]; mouse, sc, 30 ug, subcutaneous injection 30 μg, read-out: AUC0-360 (converted)) was 9.84 ng·h/mL.
